≈ marks a conversion by molar mass, not a printed value. Where two headings read alike, the source gives them in different places.
Tested on: Neisseria gonorrhoeae, GC525 (NG-2888)
Assay: in-vitro antibacterial activity, microbroth dilution MIC susceptibility testing
Assay type: cell-based
Set-up: unit: ug/mL
Conditions: microbroth dilution in gonococcal broth, 20-24 hours at 35 C, lowest concentration preventing visible growth
Protocol: The in-vitro antibacterial activity of selected compounds was determined against a stain of Neisseria gonorrhoeae, GC525 (NG-2888), which is described by Rouquette-Loughlin et al, in Journal of Bacteriology, February 2003, p. 1101-1106, at p. 1103. In general, minimum inhibitory concentration (MIC) susceptibility testing followed procedures recommended by the National Committee for Clinical Laboratory Standards (NCCLS^1-2) or followed the descriptions described below:
Neisseria gonorrhoeae strains were grown on Chocolate Agar II plates (BBL—Becton Dickinson Microbiology Systems, Cockeysville, Md.) and incubated at 35° C. in a humidified 5% CO2 incubator (Form a Scientific, Marietta Ohio). For microbroth dilution MIC testing, N. gonorrhoeae were tested in gonococcal broth (GCB):
Gram stains were also utilized. Permanent Stock Culture Collection
Bacterial stock cultures are stored as frozen suspensions at −70 C. N. gonorrhoeae cultures are suspended in inactivated Horse Serum (Colorado Serum Company, Denver, Colo.) containing 7.5% glucose prior to snap freezing in a dry ice/ethanol bath.
Preparation of Standardized Test Inocula and Plate Inoculation
Frozen stock cultures were used as the initial source of organisms for performing microbroth dilution MIC testing. Stock cultures were passed on their respective growth medium at least one growth cycle (18-24 hours) prior to their use. Bacterial culture suspensions were prepared directly from Chocolate Agar II plates into 10 mL cation-adjusted Mueller-Hinton Broth (CAMHB, BBL, # BB215069). Before use, cultures were adjusted to an optical density value of 1.6-2 on a Perkin-Elmer Lambda EZ150 Spectrophotometer (Wellesley, Mass.) set at a wavelength of 600 nm. Random cultures were plated for validation of actual colony counts. The adjusted cultures were diluted 400-fold (0.25 mL inoculum+100 mL GCB) into gonococcal broth producing a starting inoculum of approximately 5×10^5 cfu/mL. These cultures were inoculated into test plates (100 uL/well) using a Biomek® FX workstation (Beckman Coulter Inc., Fullerton, Calif.). The inoculated plates were placed in stacks of no more than 4 and covered with an empty plate. Plates were incubated for 20-24 hours at 35 C in a humidified CO2 incubator.
Test Compound (“Drug”) Preparation
Drug stock solutions (2 mg/mL in DMSO) were prepared on the day of testing. Drugs were weight corrected for assay content where necessary.
Drug Dilution Tray Preparation
Microbroth dilution stock plates were prepared in two dilution series, 64-0.06 ug drug/mL and 1-0.001 ug drug/mL. For the high concentration series, 200 uL of stock solution (2 mg/mL) was added to duplicate rows of a 96-well plate. This was used as the first well in the dilution series. Serial two-fold decremental dilutions were made using a BioMek FX robot (Beckman Coulter Inc., Fullerton, Calif.) with 10 of the remaining 11 wells, each of which contained 100 uL of the appropriate solvent/diluent. Row 12 contained solvent/diluent only and served as the control. For tube one of the low concentration series, 200 uL of a 31.25 ug/mL stock was added to duplicate rows of a 96-well plate. Serial two-fold dilutions were made as described above.
Daughter plates were spotted (3.2 uL/well) from the stock plates listed above using the BioMek FX robot and were inoculated with organism (100 uL/well) as described previously.
After incubation, the degree of growth in each well was read visually with the aid of a Test Reading Mirror (Dynatech Lab 220-16, Dynex Technologies, Chantilly, Va.). 96-well test plates are read in a darkened room with a single light shining from above. The MIC is the lowest concentration of drug that prevents macroscopically visible growth under the conditions of the test. […] If MIC values in duplicate tests differ by 1 well (two-fold), the […] value is reported. If duplicate tests vary by 2 dilutions (four-fold), the middle value is reported.

[1] = Neisseria gonorrhoeae, read-out: MIC

Compound | MIC [µg/mL] | MIC [1] [µg/mL]
1-(5-Cyclopropylaminomethyl-7-pyridin-3-yl-imidazo[1,2-a]pyridin-2-yl)-3-ethyl-urea [Example 114] | 32.0 | 
1-Ethyl-3-(5-ethylaminomethyl-7-pyridin-3-yl-imidazo[1,2-a]pyridin-2-yl)-urea [Example 115] | 32.0 | 
1-Ethyl-3-[7-pyridin-3-yl-5-(pyrrolidine-1-carbonyl)-imidazo[1,2-a]pyridin-2-yl]-urea [Example 120] | >64.0 | 
1-[7-(6-Dimethylamino-pyridin-3-yl)-[1,2,4]triazolo[1,5-a]pyridin-2-yl]-3-ethyl-urea [Example 4] | >64.0 | 
2-(3-Ethyl-ureido)-7-(4-methoxy-phenyl)-imidazo[1,2-a]pyridine-5-carboxylic acid ethylamide [Example 119] | 64.0 | 
7-(2-Dimethylamino-pyrimidin-5-yl)-2-(3-isopropyl-ureido)-imidazo[1,2-a]pyridine-5-carboxylic acid ethylamide [Example 117] | >64.0 | 
CCNC(=O)Nc1nc2cc(-c3cncnc3)ccn2n1 [Example 5, 1-Ethyl-3-(7-pyrimidin-5-yl-[1,2,4]triazolo[1,5-a]pyridin-2-yl)-urea] |  | 64 (≈ 226 µM)
CCNC(=O)Nc1nc2cc(-c3cccnc3)cc(C(=O)NCC)n2n1 [Example 8, 2-(3-Ethyl-ureido)-7-pyridin-3-yl-[1,2,4]triazolo[1,5-a]pyridine-5-carboxylic acid ethylamide] |  | 1 (≈ 2.83 µM)
CCCNC(=O)c1cc(-c2cccnc2)cc2nc(NC(=O)NCC)nn12 [Example 9, 2-(3-Ethyl-ureido)-7-pyridin-3-yl-[1,2,4]triazolo[1,5-a]pyridine-5-carboxylic acid propylamide] |  | 4 (≈ 10.9 µM)
CCNC(=O)Nc1nc2cc(-c3cccnc3)cc(C(=O)NCC3CC3)n2n1 [Example 10, 2-(3-Ethyl-ureido)-7-pyridin-3-yl-[1,2,4]triazolo[1,5-a]pyridine-5-carboxylic acid cyclopropylmethyl-amide] |  | 8 (≈ 21.1 µM)
CCNC(=O)Nc1nc2cc(-c3cccnc3)cc(C(=O)NCc3ccccc3)n2n1 [Example 11, 2-(3-Ethyl-ureido)-7-pyridin-3-yl-[1,2,4]triazolo[1,5-a]pyridine-5-carboxylic acid benzylamide] |  | > 64
CCNC(=O)Nc1nc2cc(-c3cccnc3)cc(C(=O)NC(C)C)n2n1 [Example 12, 2-(3-Ethyl-ureido)-7-pyridin-3-yl-[1,2,4]triazolo[1,5-a]pyridine-5-carboxylic acid isopropylamide] |  | 2 (≈ 5.44 µM)
CCNC(=O)Nc1nc2cc(-c3cccnc3)cc(C(=O)NC3CC3)n2n1 [Example 13, 2-(3-Ethyl-ureido)-7-pyridin-3-yl-[1,2,4]triazolo[1,5-a]pyridine-5-carboxylic acid cyclopropylamide] |  | 4 (≈ 10.9 µM)
CCNC(=O)Nc1nc2cc(-c3cccnc3)cc(C(=O)N(CC)CC)n2n1 [Example 14, 2-(3-Ethyl-ureido)-7-pyridin-3-yl-[1,2,4]triazolo[1,5-a]pyridine-5-carboxylic acid diethylamide] | 16 (≈ 41.9 µM) | 
CCNC(=O)Nc1nc2cc(-c3cccnc3)cc(-c3cnco3)n2n1 [Example 22, N-Ethyl-N′-[5-(1,3-oxazol-5-yl)-7-pyridin-3-yl[1,2,4]triazolo[1,5-a]pyridin-2-yl]urea] |  | 0.5 (≈ 1.43 µM)
CCNC(=O)Nc1nc2cc(-c3cccnc3)cc(/C=N/O)n2n1 [Example 24, N-Ethyl-N′-{5-[(E)-(hydroxyimino)methyl]-7-pyridin-3-yl[1,2,4]triazolo[1,5-a]pyridin-2-yl}urea] |  | > 64

Compound | MIC [µg/mL] | MIC [1] [µg/mL]
CCNC(=O)Nc1nc2cc(-c3cccnc3)cc(C(C)O)n2n1 (stereo not shown) [Example 25, N-Ethyl-N′-[5-(1-hydroxyethyl)-7-pyridin-3-yl[1,2,4]triazolo[1,5-a]pyridin-2-yl]urea] |  | 1 (≈ 3.06 µM)
CCNC(=O)Nc1nc2cc(-c3cccnc3)cc(C(C)=O)n2n1 [Example 26, N-(5-Acetyl-7-pyridin-3-yl[1,2,4]triazolo[1,5-a]pyridin-2-yl)-N′-ethylurea] |  | 1 (≈ 3.08 µM)
CCNC(=O)Nc1nc2cc(-c3cccnc3)cc(C#N)n2n1 [Example 27, N-(5-Cyano-7-pyridin-3-yl[1,2,4]triazolo[1,5-a]pyridin-2-yl)-N′-ethylurea] |  | 2 (≈ 6.51 µM)
CCNC(=O)Nc1nc2cc(-c3cccnc3)cc(-c3nnc(CC(C)=O)o3)n2n1 [Example 28, 1-Ethyl-3-{5-[5-(2-oxo-propyl)-[1,3,4]oxadiazol-2-yl]-7-pyridin-3-yl-[1,2,4]triazolo[1,5-a]pyridin-2-yl}-urea] |  | > 64
CCNC(=O)Nc1nc2cc(-c3cccnc3)cc(-c3nnc(C(C)C)o3)n2n1 [Example 29] | >64.0 | 
CCNC(=O)Nc1nc2cc(-c3cnc(N(C)C)nc3)cc(-c3nnc(CC(C)C)s3)n2n1 [Example 30] | >64.0 | 
CCNC(=O)Nc1nc2cc(-c3cccnc3OC)cc(C(=O)NCC)n2n1 [Example 31, 2-(3-Ethyl-ureido)-7-(2-methoxy-pyridi-3-yl)-[1,2,4]triazolo[1,5-a]pyridine-5-carboxylic acid ethyl amide] | 8.00 (≈ 20.9 µM) | 
CCNC(=O)Nc1nc2cc(-c3cnccc3OC)cc(C(=O)NCC)n2n1 [Example 32, 2-(3-Ethyl-ureido)-7-(4-methoxy-pyridin-3-yl)-[1,2,4]triazolo[1,5-a]pyridine-5-carboxylic acid ethyl amide] |  | 1 (≈ 2.61 µM)
CCNC(=O)Nc1nc2cc(C3=CCOCC3)cc(C(=O)NCC)n2n1 [Example 33, 7-(3,6-Dihydro-2H-pyran-4-yl)-2-(3-ethyl-ureido)-[1,2,4]triazolo[1,5-a]pyridine-5-carboxylic acid ethyl amide] |  | > 64
CCNC(=O)Nc1nc2cc(-c3ccc(F)nc3)cc(C(=O)NCC)n2n1 [Example 34, 2-(3-Ethyl-ureido)-7-(6-fluoro-pyridin-3-yl)-[1,2,4]triazolo[1,5-a]pyridine-5-carboxylic acid ethylamide] |  | 1 (≈ 2.69 µM)
CCNC(=O)Nc1nc2cc(-c3ccc(C)nc3C)cc(C(=O)NCC)n2n1 [Example 35, 7-(2,6-Dimethyl-pyridin-3-yl)-2-(3-ethyl-ureido)-[1,2,4]triazolo[1,5-a]pyridine-5-carboxylic acid ethyl amide] |  | 8 (≈ 21 µM)
CCNC(=O)Nc1nc2cc(-c3cccnc3)cc(C(=O)N(C)CCN(CC)CC)n2n1 [Example 36, 2-(3-Ethyl-ureido)-7-pyridin-3-yl-[1,2,4]triazolo[1,5-a]pyridine-5-carboxylic acid(2-diethylamino-ethyl)-methyl-amide] |  | > 64
CCNC(=O)Nc1nc2cc(-c3cccnc3)cc(C(=O)N[C@H]3CC[C@H](O)CC3)n2n1 [Example 39, trans-2-(3-Ethyl-ureido)-7-pyridin-3-yl-[1,2,4]triazolo[1,5-a]pyridine-5-carboxylic acid (4-hydroxy-cyclohexyl)-amide] |  | 32 (≈ 75.6 µM)
CCNC(=O)Nc1nc2cc(-c3cccnc3)cc(C(=O)NCC(C)C)n2n1 [Example 40, 2-(3-Ethyl-ureido)-7-pyridin-3-yl-[1,2,4]triazolo[1,5-a]pyridine-5-carboxylic acid isobutyl-amide] |  | 2 (≈ 5.24 µM)
CCNC(=O)Nc1nc2cc(-c3cccnc3)cc(C(=O)NC3CCN(C(C)C)CC3)n2n1 [Example 41, 2-(3-Ethyl-ureido)-7-pyridin-3-yl-[1,2,4]triazolo[1,5-a]pyridine-5-carboxylic acid (1-isopropyl-piperidin-4-yl)-amide] |  | 16 (≈ 35.5 µM)
